Measurements as given in the NIST ThermoML archive (doi:10.1016/j.tca.2017.12.013).
± gives the expanded uncertainty stated by the source.

Assay: molar heat capacity at constant pressure
Settings: 101.33 kPa, Crystal 2, DSC

[Ag+].[Ag+].[S-2] [silver sulfide]
Settings	molar heat capacity at constant pressure [J/K/mol]
617.82 K	86.15 ± 3.4
618.82 K	86.13 ± 3.4
619.82 K	86.1 ± 3.4
620.82 K	86.08 ± 3.4
621.82 K	86.05 ± 3.4
622.82 K	86.03 ± 3.4
623.82 K	86.01 ± 3.4
624.82 K	85.99 ± 3.4
625.82 K	85.96 ± 3.4
626.82 K	85.94 ± 3.4
627.82 K	85.92 ± 3.4
628.82 K	85.9 ± 3.4
629.82 K	85.88 ± 3.4
630.82 K	85.86 ± 3.4
631.82 K	85.84 ± 3.4
632.82 K	85.82 ± 3.4
633.82 K	85.8 ± 3.4
634.82 K	85.78 ± 3.4
635.82 K	85.76 ± 3.4
636.82 K	85.74 ± 3.4
637.82 K	85.73 ± 3.4
638.82 K	85.71 ± 3.4
639.82 K	85.7 ± 3.4
640.82 K	85.7 ± 3.4
641.82 K	85.69 ± 3.4
642.82 K	85.67 ± 3.4
643.82 K	85.66 ± 3.4
644.82 K	85.65 ± 3.4
645.82 K	85.64 ± 3.4
646.82 K	85.62 ± 3.4
647.82 K	85.62 ± 3.4
648.82 K	85.61 ± 3.4
649.82 K	85.6 ± 3.4
650.82 K	85.59 ± 3.4
651.82 K	85.57 ± 3.4
652.82 K	85.57 ± 3.4
653.82 K	85.57 ± 3.4
654.82 K	85.57 ± 3.4
655.82 K	85.56 ± 3.4
656.82 K	85.56 ± 3.4
657.82 K	85.56 ± 3.4
658.82 K	85.56 ± 3.4
659.82 K	85.57 ± 3.4
660.82 K	85.56 ± 3.4
661.82 K	85.56 ± 3.4
662.82 K	85.57 ± 3.4
663.82 K	85.57 ± 3.4
664.82 K	85.57 ± 3.4
665.82 K	85.57 ± 3.4
666.82 K	85.57 ± 3.4
667.82 K	85.57 ± 3.4
668.82 K	85.57 ± 3.4
669.82 K	85.58 ± 3.4
670.82 K	85.59 ± 3.4
671.82 K	85.6 ± 3.4
672.82 K	85.61 ± 3.4
673.82 K	85.62 ± 3.4
674.82 K	85.63 ± 3.4
675.82 K	85.64 ± 3.4
676.82 K	85.66 ± 3.4
677.82 K	85.67 ± 3.4
678.82 K	85.69 ± 3.4
679.82 K	85.7 ± 3.4
680.82 K	85.72 ± 3.4
681.82 K	85.74 ± 3.4
682.82 K	85.75 ± 3.4
683.82 K	85.77 ± 3.4
684.82 K	85.79 ± 3.4
685.82 K	85.81 ± 3.4
686.82 K	85.83 ± 3.4
687.82 K	85.85 ± 3.4
688.82 K	85.87 ± 3.4
689.82 K	85.89 ± 3.4
690.82 K	85.92 ± 3.4
691.82 K	85.94 ± 3.4
692.82 K	85.96 ± 3.4
693.82 K	85.99 ± 3.4
694.82 K	86.01 ± 3.4
695.82 K	86.04 ± 3.4
696.82 K	86.06 ± 3.4
697.82 K	86.09 ± 3.4
698.82 K	86.12 ± 3.4
699.82 K	86.14 ± 3.4
700.82 K	86.04 ± 3.4
701.82 K	86.05 ± 3.4
702.82 K	86.06 ± 3.4
703.82 K	86.07 ± 3.4
704.82 K	86.08 ± 3.4
705.82 K	86.09 ± 3.4
706.82 K	86.1 ± 3.4
707.82 K	86.11 ± 3.4
708.82 K	86.12 ± 3.4
709.82 K	86.13 ± 3.4
710.82 K	86.14 ± 3.4
711.82 K	86.15 ± 3.4
712.82 K	86.16 ± 3.4
713.82 K	86.17 ± 3.4
714.82 K	86.18 ± 3.4
715.82 K	86.19 ± 3.4
716.82 K	86.2 ± 3.4
717.82 K	86.21 ± 3.4
718.82 K	86.22 ± 3.4
719.82 K	86.23 ± 3.4
720.82 K	86.24 ± 3.4
721.82 K	86.25 ± 3.4
722.82 K	86.26 ± 3.4
723.82 K	86.26 ± 3.4
724.82 K	86.27 ± 3.4
725.82 K	86.28 ± 3.4
726.82 K	86.29 ± 3.4
727.82 K	86.3 ± 3.5
728.82 K	86.3 ± 3.5
729.82 K	86.31 ± 3.5
730.82 K	86.32 ± 3.5
731.82 K	86.32 ± 3.5
732.82 K	86.33 ± 3.5
733.82 K	86.33 ± 3.5
734.82 K	86.34 ± 3.5
735.82 K	86.34 ± 3.5
736.82 K	86.35 ± 3.5
737.82 K	86.35 ± 3.5
738.82 K	86.35 ± 3.5
739.82 K	86.35 ± 3.5
740.82 K	86.36 ± 3.5
741.82 K	86.36 ± 3.5
742.82 K	86.36 ± 3.5
743.82 K	86.36 ± 3.5
744.82 K	86.36 ± 3.5
745.82 K	86.36 ± 3.5
746.82 K	86.35 ± 3.5
747.82 K	86.35 ± 3.5
748.82 K	86.35 ± 3.5
749.82 K	86.35 ± 3.5
750.82 K	86.34 ± 3.5
751.82 K	86.34 ± 3.5
752.82 K	86.33 ± 3.5
753.82 K	86.33 ± 3.5
754.82 K	86.32 ± 3.5
755.82 K	86.31 ± 3.5
756.82 K	86.31 ± 3.5
757.82 K	86.3 ± 3.5
758.82 K	86.29 ± 3.4
759.82 K	86.28 ± 3.4
760.82 K	86.27 ± 3.4
761.82 K	86.27 ± 3.4
762.82 K	86.26 ± 3.4
763.82 K	86.25 ± 3.4
764.82 K	86.24 ± 3.4
765.82 K	86.23 ± 3.4
766.82 K	86.21 ± 3.4
767.82 K	86.2 ± 3.4
768.82 K	86.19 ± 3.4
769.82 K	86.18 ± 3.4
